From patent US8680076B2, “Methods of treatment, improvement and prevention using haloaryl substituted aminopurines” (Signal Pharmaceuticals, LLC, priority 2010, dated 2014)
Entries after “also recorded” stand apart in the source; their conditions may differ.

Key:
[1] = test system: phospho c-Jun (JNK) in human skin; experiment: UVB-irradiated human skin, phospho c-Jun IHC (3-way crossover study); type: in vivo; conditions: for median subjective score of phospho c-Jun: scale 0-4, placebo score 4
Experimental: (§1) The inhibitory effect of JNKi-1 on JNK was evaluated by assessing the status of the downstream substrate c-Jun (“cJun”) and phospho-c-Jun (or “p-cJun”) following UV irradiation of human skin.
(§2) The study was designed as randomized, double blind, placebo controlled, multiple dose, 3-way crossover study. Fifteen subjects were randomized to one of 3 sequences (5 subjects per sequence) as outlined below (see Table 3). There was a 7-day to 10 day washout period (no more than 14 days) from the last dose of the previous period to the first dose of the next period.
(§3) Fifteen patients enrolled, 14 completed the study and were included in the PD and PK analyses; all were healthy Caucasian male volunteers with Fitzpatrick skin type 2. The mean age was […] (20-49 years) and weight was 81 kg (64-96 kg). On the evening of Day-1, patients started fasting (at least an 8-hour fast prior to dosing on Day 1). Subjects received treatment A, B or C in Periods 1 to 3 under fasting conditions in an order based on the randomization scheme. Subjects went through the same procedures (except for the change in treatment) for all 3 periods, with the required washout in between periods. No strenuous activities were permitted during confinement. All efforts were made to keep activities, environment, food, procedures, and schedule between treatment periods identical.
(§4) On Day 6, subjects received a 2×MED UV dose to two sites on the buttock. One punch biopsy (approximately 3 mm in diameter by 0.8 mm in depth) was taken from one of the two UV irradiated sites. The punch biopsies were taken at 8 (±5 minutes) hours post UV exposure on Day 6.
(§5) Skin specimens from the biopsies was analyzed for phospho c-Jun and total c-Jun using IHC assay. Phospho c-Jun was quantified using a 0-4 subjective grading scales and/or objective scoring using an automated system, i.e. a laser scanning cytometer (LSC), evaluating the integrated intensity of staining measured optically.
(§6) Biopsies were analyzed following the procedures described below to evaluate phospho c-Jun and c-Jun expression using IHC assay. The method employed to assess JNK activation was a two antibody IHC assay that employed a primary antibody, directed against the target, and a secondary antibody conjugated with a chromogenic enzyme. Thus, the method was a two-step immunohistochemical assay designed to interrogate the target, c-Jun and phospho c-Jun. Any changes in JNK activity were measurable in the amounts of these target molecules, c-Jun and phospho c-Jun. The secondary antibody-reporter conjugate deposited a red color when incubated with the substrate reaction mix, thus marking the location of the primary antibody target complex. The red color was then recorded with standard bright-field illumination using a Nikon microscope. The microscope images were then photographed and electronic images were scored (blinded) by three independent and trained scorers using the following guidelines. A score of 0 indicated staining of 0-19% of the epithelial keratinocyte nuclei; a score of 1 indicated staining of 20-39% of the epithelial keratinocyte nuclei; a score of 2 indicated staining of 40-59% of the epithelial keratinocyte nuclei; a score of 3 indicated staining of 60-79% of the epithelial keratinocyte nuclei; and a score of 4 indicated staining of 80-100% of the epithelial keratinocyte nuclei. FIG. 21 depicts representative immunostaining for the respective scores.
(§7) For each tissue, a count of nuclei in the epithelial layer was obtained. All phospho c-Jun or c-Jun positive nuclei were counted as well as their integral (intensity). A score was calculated for each: score=(p-cJun or cJun positive nuclei×average Intensity)/Total nuclei.

[2] = test system: fibroblasts from SSc patients; experiment: MTT assay, SSc fibroblast viability; type: cell-based, human; conditions: 1 μM, 24-hr incubation
Experimental: Dermal fibroblasts from two SSc patients were treated for 24 hours (hr) with Compound JNKi-1 at concentrations from 0.1 μM to 10 μM (0.5% DMSO/99.5% cell culture media). To study the effect of Compound JNKi-1 on growth factor-induced collagen expression, recombinant transforming growth factor beta (TGF-β) (final concentration of 10 ng/mL) or platelet-derived growth factor-BB (PDGF-BB) (final concentration of 40 ng/mL) were added to cells 2 hr after the addition of JNK-inhibitor Compound JNKi-1 for 24 hr. The expression of collagen proteins was analyzed by SirCol assay. The messenger ribonucleic acid (mRNA) levels of extracellular proteins were measured by real-time polymerase chain reaction (PCR). The β-actin mRNA was used as internal control for the measurement of Collagen 1a1 mRNA using PCR. Fibroblast proliferation assay was performed in the presence or absence of 1 μM Compound JNKi-1 for 24 hr with the (3-(4,5-Dimethylthiazol-2-yl)-2,5-diphenyltetrazolium bromide) (MTT) assay.
The isolation of fibroblasts from human SSc patients and culture conditions used in this study have been previously described (Akhmetshina A, Dees C, Pileckyte M, Maurer B, Axmann R, Jüngel A, et al., Dual inhibition of c-abl and PDGF receptor signaling by dasatinib and nilotinib for the treatment of dermal fibrosis, FASEB J. 2008; 22(7):2214-22). […] Data are expressed as mean±standard error of the mean (SEM).

[3] = test system: c-Jun (JNK) in human skin; experiment: UVB-irradiated human skin, c-Jun IHC (3-way crossover study); type: in vivo; conditions: for median subjective score of c-Jun: scale 0-4
Experimental: as §1, §2, §3, §4, §5, §6, §7

SMILES: O[C@H]1CC[C@H](Nc2ncc3nc(Nc4c(F)cc(F)cc4F)n([C@H]4CCOC4)c3n2)CC1 [JNKi-1, 4-((9-((3S)-tetrahydro-3-furanyl)-8-((2,4,6-trifluorophenyl)amino)-9H-purin-2-yl)amino)-trans-cyclohexanol]
- patients with reduced phospho c-Jun, subjective scoring ([1]; 75 mg QD x 6 days): 57%
- patients with reduced phospho c-Jun, subjective scoring ([1]; 75 mg QD x 6 days, 2xMED UVB, biopsy 8 hours post UV): 8/14
- median subjective score of phospho c-Jun ([1]; 75 mg QD x 6 days): 3
- frequency of high phospho c-Jun subjective scores ([1]; 75 mg and 200 mg vs placebo): fewer subjects had high p-cJun scores; also recorded: fewer patients had high scores
- phospho c-Jun by laser scanning cytometry (LSC) analysis ([1]; 75 mg or 200 mg): Decrease in phospho c-Jun was confirmed
- odds ratio, phospho c-Jun scores 0, 1, 2 vs. scores 3, 4 (logistic regression) ([1]; 75 mg vs. placebo): 10.96
- patients with inhibited phospho c-Jun, subjective scoring ([1]; 200 mg QD x 6 days): 78%
- patients with inhibited phospho c-Jun, subjective scoring ([1]; 200 mg QD x 6 days, 2xMED UVB, biopsy 8 hours post UV): 11/14
- median subjective score of phospho c-Jun ([1]; 200 mg QD x 6 days): 1
- odds ratio, phospho c-Jun scores 0, 1, 2 vs. scores 3, 4 (logistic regression) ([1]; 200 mg vs. placebo): 41.89
- elevation of phospho c-Jun induced by the UVB irradiation ([1]; oral, about 75 mg to about 200 mg, in a majority of patients): partially or completely inhibited
- phospho c-Jun immunostaining, percentage of positive epithelial nuclei, Patient 15 ([1]; versus placebo): significantly decreased
- cytotoxic effect / cell viability (MTT) [2]: does not exert its inhibitory effects indirectly by reducing cell viability; also recorded: no cytotoxic effect
- median subjective score of c-Jun ([3]; 75 mg QD x 6 days): 3
- odds ratio, c-Jun scores 0, 1, 2 vs. scores 3, 4 (logistic regression) ([3]; 75 mg vs. placebo): 3.69
- median subjective score of c-Jun ([3]; 200 mg QD x 6 days): 2
- frequency of high c-Jun subjective scores ([3]; 200 mg vs placebo): fewer subjects had high cJun scores; also recorded: fewer patients had high scores
- odds ratio, c-Jun scores 0, 1, 2 vs. scores 3, 4 (logistic regression) ([3]; 200 mg vs. placebo): 9.30
- c-Jun immunostaining, percentage of positive epithelial nuclei, Patient 15 ([3]; versus placebo): significantly decreased
